In US20250057788A1, “COMPOSITIONS AND METHODS FOR TREATMENT OF CHRONIC PAIN AND DEPRESSION” (priority 2023, published 2025):
Structures can show the parent of a compound that is named as a salt.

How the values were obtained:
[1] = test system: formalin-induced pain (paw licking behavior); experiment: Rat formalin test (paw licking, acute and delayed/chronic phase); format: in vivo; conditions: for enhancement of the effects of ketamine 100 μM: hydroxide combined with ketamine 100 μM; for enhancement of the effects of ketamine 100 μM / Acute paw lick response, Mean / Chronic (delayed) paw lick response, Mean / delayed paw licking responses vs. control: Example 4; for Acute paw lick response, Mean / Chronic (delayed) paw lick response, Mean / delayed paw licking responses vs. control: 100 μM; for Paw licking time, Acute, Mean / Paw licking time, Chronic, Mean: NaOH where added equimolar; for Paw licking time, Acute, Mean: acute phase 0-10 min after formalin; for Paw licking time, Chronic, Mean: delayed phase from 10 min after formalin; for delayed hind paw licking (marginal means), Mean: TAS2R ligand .5 mM
Description: In this test, effects are measured on both acute and delayed formalin-induced pain, as reflected in paw licking behavior.
Methods: All studies were performed at Psychogenics, Inc. (Tarrytown, NY). Male SD rats (Envigo) were used in the study. All rats were examined and weighed (about 200 g) prior to initiation of the study to assure adequate health and suitability. For the formalin test, rats were habituated for 30 min in observation chambers with cameras positioned underneath. After the pre-treatment time, animals received a subcutaneous injection into the plantar surface of the left hind-paw with 15 μl of 5% formalin using a Hamilton micro-syringe and a 30-gauge needle.
Rats were returned to the observation chamber and immediately observed for behavior. The total time spent licking, flinching or biting the treated hind-paw over the next 35 min was recorded and videos were scored by a trained observer blinded to the treatment group. The acute response was evaluated in 5 min intervals for 0-10 min, and the delayed response was evaluated from 10-35 or 10-40 min.
For this experiment, effects of ketamine alone vs. ketamine+NaOH were assessed at concentrations between 30 uM (μM) and […] vs. control. Secondary analyses evaluated relative effects of ketamine+NaOH vs. ketamine alone. Analyses were performed by between-group t-tests or multiway ANOVA as expected. For each experiment, outliers ±2SD from the group means were removed from the analyses as flagged in study reports.
Methods: Overall methods were the same as for Example 1. However, for this study, the concentration of ketamine was fixed at 100 μM across conditions, and the ratio of NaOH to ketamine was varied from 1:10 (0.1 ratio) to 1:2 (0.5 ratio) to 3:4 (0.75 ratio) to 1:1 (1.0 ratio). An ANOVA was conducted across ratios to determine statistical significance.
Methods: Formalin test methods were the same as for examples 1 and 2. […] Denatonium was additionally administered combined with Ketamine 100 μM.
In order to evaluate the specificity of the synergistic effect between ketamine and NaOH, formalin tests were evaluated in combination with other hydroxides, including Ca(OH)2 and KOH. […] Formalin tests were therefore conducted in the presence of 100 μM S-ketamine relative to racemic ketamine.

[2] = test system: depression-related behaviors in SNL animals with chronic pain; experiment: Forced swim test in spinal nerve ligation (SNL) rats; format: in vivo, rat; conditions: ketamine NaOH at 0.5 ratio, FIG. 5
Source text: Chronic pain may also lead to depressive symptoms that cause additional disability and may reflect an independent treatment target. Anti-depression effects may be modeled in rodents using behavioral measures including the forced swim test, which measures the time that rodents remain immobile when placed in water. In one model, chronic pain Is created by spinal nerve ligation (SNL) in which a ligation is placed around the left L5 nerve, which leads to hypersensitivity of the paw withdrawal threshold.
Methods: Male Sprague Dawley rats (about 150 g on arrival) from Envigo were used. Upon receipt animals were group housed for the remainder of their stay at PsychoGenics. […]
Spinal nerve ligation: Under general anesthesia with continuous inhalation of isoflurane, surgery was performed with aseptic procedures. […] Each rat was monitored until awake and moving freely around the recovery chamber. […]
Forced swim test: The forced swim (FS) test is considered to predict anti-depression effects. When rats are forced to swim in a small cylinder from which no escape is possible, they readily adopt a characteristic immobile posture and make no further attempts to escape except for small movements needed to prevent them from drowning. […] Immobility, climbing, and swimming behaviors were recorded every 5 sec for a total of 60 counts per subject. […]

In the case of `[K+].[OH-]` [KOH], the “enhancement of the effects of ketamine 100 μM” value [1] is reported as “Neither Ca(OH)2 or KOH enhanced”.
`[Ca+2].[OH-].[OH-]` [Ca(OH)2] was tested, and the “enhancement of the effects of ketamine 100 μM” value [1] was “Neither Ca(OH)2 or KOH enhanced”.
For `CN[C@]1(c2ccccc2Cl)CCCCC1=O` [S-ketamine], the “Acute paw lick response, Mean” value [1] was 50.5, the “Chronic (delayed) paw lick response, Mean” value [1] was 120.6 and the “delayed paw licking responses vs. control” value [1] was “numeric decreases in delayed paw licking vs. control, but the differences were not statistically significant”.
In the case of `CNC1(c2ccccc2Cl)CCCCC1=O` (racemic) [Ketamine, Ketamine HCl], the immobility time [2] is reported as “significantly reduced immobility time”, the swimming time [2] is reported as “increased swimming time” and the “Acute paw lick response, Mean” value [1] is reported as 54.5. The “Chronic (delayed) paw lick response, Mean” value [1] was 196.4, the “delayed paw licking responses vs. control” value [1] was “did not significantly reduce delayed responses” and the “inhibition of delayed response” value ([1]; concentrations of ≥30 mM, all p<0.005) was “significant inhibition of delayed response”. The “effects on acute response” value ([1]; doses of ≥100 mM, all p<0.001, suggesting non-specific behavioral effects) was “significant effects”, the “Paw licking time, Acute, Mean” value ([1]; ketamine 30 μM) was 55.20 s and the “Paw licking time, Chronic, Mean” value ([1]; ketamine 30 μM) was 56.00 s. For the same compound, the “delayed response, post-hoc difference vs. control” value ([1]; ketamine 30 μM, one-way ANOVA) was “significant post-hoc differences vs. control”, the “Paw licking time, Acute, Mean” value ([1]; ketamine 100 μM) was 50.95 s and the “Paw licking time, Chronic, Mean” value ([1]; ketamine 100 μM) was 140.71 s. The “Paw licking time, Acute, Mean” value ([1]; ketamine 300 μM) was 40.50 s, the “Paw licking time, Chronic, Mean” value ([1]; ketamine 300 μM) was 147.00 s and the “Paw licking time, Acute, Mean” value ([1]; ketamine 30 mM) was 39.44 s. For the same compound, the “Paw licking time, Chronic, Mean” value ([1]; ketamine 30 mM) was 49.88 s, the “Paw licking time, Acute, Mean” value ([1]; ketamine 100 mM) was 0.11 s and the “Paw licking time, Chronic, Mean” value ([1]; ketamine 100 mM) was 0.00 s. For the same compound, the “Paw licking time, Acute, Mean” value ([1]; ketamine 300 mM) was 0.11 s and the “Paw licking time, Chronic, Mean” value ([1]; ketamine 300 mM) was 0.00 s.
In the case of `C=C[C@H]1C[N@@]2CC[C@H]1C[C@@H]2[C@@H](O)c1ccnc2ccc(OC)cc12` [Quinidine, Quinidine gluconate], the “delayed hind paw licking (marginal means), Mean” value [1] is reported as 288.6 s.
In the case of `CC[N+](CC)(CC(=O)Nc1c(C)cccc1C)Cc1ccccc1` [Denatonium, Denatonium benzoate], the “delayed hyperalgesic response vs. control” value ([1]; 0.5 mM, p=0.029) is reported as “significant reduction in hyperalgesia” and the “delayed hind paw licking (marginal means), Mean” value [1] is reported as 161.0 s.
